Experimental data: paper PMC6092981 (Bioinorganic Chemistry and Applications, 2018)
Counter-ions that a name gives are not always drawn. Where a SMILES comes first, the peptide text is derived from it. Where no end group is shown, it is not given here. The star is where a group is joined. Cbz = O=C(OCc1ccccc1)*; CH2F = FC*

How the values were obtained:
Jurkat cells [1] = assay: MTT assay of Jurkat cells in the presence of caspase, necroptosis and necrosis inhibitors; assay type: cell-based, human; conditions: Z-VAD-FMK 15 µM, 24 h, 37°C; for inhibition of cell death induced by 5: necrostatin-1 30 µM, IM-54 10 µM, 1 h pre-incubation, 5 75 µM, MTT
Procedure: Jurkat cells (1.0 × 10^5 cells/mL) were incubated in 10% FCS RPMI 1640 medium (MTG-free) containing a solution Z-VAD-fmk (15 µM)/necrostatin-1 (30 µM)/IM-54 (10 µM)/(under 5% CO2 at 37°C for 1 h in 96-well plates (BD Falcon). Then, Ir complexes (75 µM) were added and incubated under 5% CO2 at 37°C for 24 h, and then 0.5% MTT reagent in PBS buffer (10 µL) was added to the cells and incubated under 5% CO2 at 37°C for 4 h. A formazan lysis solution (10% SDS in 0.01 N HCl) (100 µL) was added, and the resulting solution incubated overnight under the same conditions, followed by measurement of absorbance at 570 nm with a microplate reader (Bio-Rad).

Jurkat cells [2] = assay: PI staining microscopy of Jurkat cells with 5 in the presence of inhibitors; assay type: cell-based, human; conditions: nicardipine 50 µM, verapamil 20 µM, 37°C 1 h, then 5 (35 µM) 24 h
Procedure: The cells were then washed twice with ice-cold PBS containing 0.5% FCS and 0.1% NaN3 and incubated with PI in PBS at room temperature for 10–15 min.

[3] = biological target: DR5 (immobilised on the QCM sensor chip) (UniProt O14763 56-440); assay: 27 MHz quartz crystal microbalance (QCM); DR5 immobilised by EDC/NHS on a 3,3'-dithiodipropionic acid layer on the Au electrode, blocked with ethanolamine; analytes added in PBS, 25°C; apparent constants from the decrease in frequency, 1:1 complexation assumed, Kd = 1/Kapp; conditions: both partners purified

CCCCCNC1=C(c2cn(C)c3ccccc23)C(=O)N(C)C1=O [IM-54]
inhibition of cell death induced by 5 (Jurkat cells [1]): negligibly inhibited

CN1C(=O)C(Cc2c[nH]c3ccccc23)NC1=S (stereo not shown) [Necrostatin-1]
inhibition of cell death induced by 5 (Jurkat cells [1]): negligibly inhibited

COC(=O)C[C@H](NC(=O)[C@H](C)NC(=O)[C@@H](NC(=O)OCc1ccccc1)C(C)C)C(=O)CF [Z-VAD-FMK, Z-Val-Ala-Asp(OMe) fluoromethylketone] (Cbz-Val-Ala-Asp(OMe)-CH2F)
inhibition of cell death induced by 5 (Jurkat cells [1]): negligibly inhibited | inhibition of TRAIL-induced cell death (Jurkat cells [1]; TRAIL 150 ng/mL, MTT and flow cytometry (PI)): almost completely

COC(=O)C1=C(C)NC(C)=C(C(=O)OCCN(C)Cc2ccccc2)C1c1cccc([N+](=O)[O-])c1 (stereo not shown) [nicardipine, nicardipine hydrochloride]
inhibition of cell death induced by 5 (Jurkat cells [2]): considerably inhibited

B1: Ir complex 2c (contains a KKGG peptide) (other)
peptide: KKGG
modifications: also: joined to a cyclometalated Ir(III) complex
notes: cationic peptide H2N-KKGG- on the Ir complex
Ka [3]: < 10000 M⁻¹ | Kd [3]: > 100 µM
